According to ChEMBL document CHEMBL5500393, “Discovery and Optimization of Novel SaFabI Inhibitors as Specific Therapeutic Agents for MRSA Infection” (J Med Chem, 2024):
In brackets after ≈: the same amount, converted by molar mass.

How the values were obtained:
Staphylococcus aureus [1] = assay: Antimicrobial activity against […] Staphylococcus aureus USA300 measured after 24 hrs by CLSI protocol based microdilution method; format: functional
Staphylococcus aureus [2] = assay: Antimicrobial activity against […] Staphylococcus aureus NRS271 measured after 24 hrs by CLSI protocol based microdilution method; format: functional
Enterococcus faecium = assay: Antimicrobial activity against Enterococcus faecium ATCC19434 measured after 24 hrs by CLSI protocol based microdilution method; format: functional
[3] = target: T1, Enoyl-[acyl-carrier-protein] reductase [NADPH] FabI (Staphylococcus aureus) (UniProt Q6GI75); assay: Inhibition of N-terminal his 6 tagged Staphylococcus aureus Fabi (1 to […] residues) expressed in Escherichia coli BL21 at 1 uM incubated for 30 mins in presence of NADPH by fluorescence based microplate reader analysis relative to control
T1 sequence (whole entry): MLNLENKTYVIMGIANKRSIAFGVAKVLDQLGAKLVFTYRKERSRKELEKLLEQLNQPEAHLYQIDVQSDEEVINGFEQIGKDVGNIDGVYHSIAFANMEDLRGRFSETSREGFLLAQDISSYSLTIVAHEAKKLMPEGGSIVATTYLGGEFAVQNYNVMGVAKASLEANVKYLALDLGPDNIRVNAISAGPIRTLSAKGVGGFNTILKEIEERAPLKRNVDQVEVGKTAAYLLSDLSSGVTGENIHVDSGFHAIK

Staphylococcus aureus [4] = assay: Antimicrobial activity against methicillin-susceptible Staphylococcus aureus ATCC29213 measured after 24 hrs by CLSI protocol based microdilution method; format: functional
Staphylococcus aureus [5] = assay: Antimicrobial activity against […] Staphylococcus aureus ATCC43300 measured after 24 hrs by CLSI protocol based microdilution method; format: functional
Acinetobacter baumannii = assay: Antimicrobial activity against Acinetobacter baumannii ATCC19606 measured after 24 hrs by CLSI protocol based microdilution method; format: functional
Staphylococcus aureus [6] = assay: Antimicrobial activity against […] Staphylococcus aureus ATCC33591 measured after 24 hrs by CLSI protocol based microdilution method; format: functional
Staphylococcus aureus [7] = assay: Antimicrobial activity against methicillin-susceptible Staphylococcus aureus ATCC25923 measured after 24 hrs by CLSI protocol based microdilution method; format: functional
Candida albicans = assay: Antimicrobial activity against Candida albicans SC5314 measured after 48 hrs by CLSI protocol based microdilution method; format: functional
[8] = target: T2, Enoyl-[acyl-carrier-protein] reductase [NADPH] FabI (Staphylococcus aureus, UniProt Q6GI75); assay: Inhibition of N-terminal his 6 tagged Staphylococcus aureus Fabi (1 to […] residues) expressed in Escherichia coli BL21 incubated for 30 mins in presence of NADPH by fluorescence based microplate reader analysis
T2 sequence (Q6GI75 whole entry): T1 sequence (whole entry)

[9] = target: T1, Enoyl-[acyl-carrier-protein] reductase [NADPH] FabI (Staphylococcus aureus); assay: Inhibition of N-terminal his 6 tagged Staphylococcus aureus Fabi (1 to […] residues) expressed in Escherichia coli BL21 at 10 uM incubated for 30 mins in presence of NADPH by fluorescence based microplate reader analysis relative to control
Pseudomonas aeruginosa = assay: Antimicrobial activity against Pseudomonas aeruginosa PAO1 measured after 24 hrs by CLSI protocol based microdilution method; format: functional
Escherichia coli = assay: Antimicrobial activity against Escherichia coli ATCC25922 measured after 24 hrs by CLSI protocol based microdilution method; format: functional
Enterococcus faecalis = assay: Antimicrobial activity against Enterococcus faecalis ATCC29212 measured after 24 hrs by CLSI protocol based microdilution method; format: functional

Compound | MIC (Staphylococcus aureus [1]) [µg/mL] | MIC (Staphylococcus aureus [2]) [µg/mL] | MIC (Enterococcus faecium) [µg/mL] | inhibition [3] [%] | MIC (Staphylococcus aureus [4]) [µg/mL] | MIC (Staphylococcus aureus [5]) [µg/mL] | MIC (Acinetobacter baumannii) [µg/mL] | MIC (Staphylococcus aureus [6]) [µg/mL] | MIC (Staphylococcus aureus [7]) [µg/mL] | MIC (Candida albicans) [µg/mL] | IC50 [8] [nM] | inhibition [9] [%] | MIC (Pseudomonas aeruginosa) [µg/mL] | MIC (Escherichia coli) [µg/mL] | MIC (Enterococcus faecalis) [µg/mL]
Cc1cccc(N2CC(c3nc4ccccc4n3C)CC2=O)c1Cl (centres undefined) | 16 (≈ 47.1 µM) | 8 (≈ 23.5 µM) | > 32 | 47.3 | 8 (≈ 23.5 µM) | 8 (≈ 23.5 µM) | > 32 | 8 (≈ 23.5 µM) | 16 (≈ 47.1 µM) | > 32 | 1180 | 95.2 | > 32 | > 32 | > 32
Cn1c(C2CC(=O)N(c3cccc4ccccc34)C2)nc2ccccc21 (centres undefined) | 8 (≈ 23.4 µM) | 16 (≈ 46.9 µM) | > 32 | 48.4 | 8 (≈ 23.4 µM) | 16 (≈ 46.9 µM) | > 32 | 8 (≈ 23.4 µM) | 8 (≈ 23.4 µM) | > 32 | 1080 | 96.9 | > 32 | > 32 | > 32
Cc1ccccc1N1CC(c2nc3ccccc3n2C)CC1=O (centres undefined) | 32 (≈ 105 µM) | 16 (≈ 52.4 µM) | > 32 | 18.3 | 16 (≈ 52.4 µM) | 32 (≈ 105 µM) | > 32 | 16 (≈ 52.4 µM) | 32 (≈ 105 µM) | > 32 | 2410 | 85.2 | > 32 | > 32 | > 32
Cn1c(C2CC(=O)N(c3cccc(F)c3F)C2)nc2ccccc21 (centres undefined) | 16 (≈ 48.9 µM) | 32 (≈ 97.8 µM) | > 32 | 35.3 | 16 (≈ 48.9 µM) | 32 (≈ 97.8 µM) | > 32 | 16 (≈ 48.9 µM) | 32 (≈ 97.8 µM) | > 32 | 227 | 91.8 | > 32 | > 32 | > 32
Cn1c(C2CC(=O)N(c3ccc(O)c(O)c3)C2)nc2ccccc21 (centres undefined) | > 32 | > 32 | > 32 | 10.7 | > 32 | > 32 | > 32 | > 32 | > 32 | > 32 | 5190 | 70.4 | > 32 | > 32 | > 32
Cc1c(Br)cccc1N1CC(c2nc3cc(F)c(F)cc3n2C)CC1=O (centres undefined) | > 32 | > 32 | > 32 | 3.2 | 32 (≈ 76.1 µM) | > 32 | > 32 | > 32 | > 32 | > 32 | 5290 | 66.7 | > 32 | > 32 | > 32
Cn1ccc2c(N3CC(c4nc5ccccc5n4C)CC3=O)cccc21 (centres undefined) | > 32 | > 32 | > 32 | 9.8 | > 32 | > 32 | > 32 | > 32 | > 32 | > 32 | 8330 | 62.1 | > 32 | > 32 | > 32
Cn1c(C2CC(=O)N(c3cccc(F)c3Br)C2)nc2ccccc21 (centres undefined) | 32 (≈ 82.4 µM) | > 32 | > 32 | 23.5 | 32 (≈ 82.4 µM) | > 32 | > 32 | 16 (≈ 41.2 µM) | > 32 | > 32 | 2730 | 83 | > 32 | > 32 | > 32
Cc1c(O)cccc1N1CC(c2nc3ccccc3n2C)CC1=O (centres undefined) | 8 (≈ 24.9 µM) | 8 (≈ 24.9 µM) | > 32 | 61.7 | 8 (≈ 24.9 µM) | 8 (≈ 24.9 µM) | > 32 | 4 (≈ 12.4 µM) | 8 (≈ 24.9 µM) | > 32 | 650 | 96.9 | > 32 | > 32 | > 32
Cc1cccc(N2CC(c3nc4ccccc4n3C)CC2=O)c1 (centres undefined) | > 32 | > 32 | > 32 | 4.9 | > 32 | > 32 | > 32 | > 32 | > 32 | > 32 | 5700 | 67.7 | > 32 | > 32 | > 32
Cc1c(Br)cccc1N1CC(c2nc3ccccc3n2C(C)C)CC1=O (centres undefined) | 16 (≈ 38.8 µM) | 32 (≈ 77.6 µM) | > 32 | 21.1 | 8 (≈ 19.4 µM) | 16 (≈ 38.8 µM) | > 32 | 16 (≈ 38.8 µM) | 16 (≈ 38.8 µM) | > 32 | 1730 | 87 | > 32 | > 32 | > 32
CCCn1c(C2CC(=O)N(c3cccc(Br)c3C)C2)nc2ccccc21 (centres undefined) | 8 (≈ 19.4 µM) | 8 (≈ 19.4 µM) | > 32 | 57.6 | 4 (≈ 9.7 µM) | 4 (≈ 9.7 µM) | > 32 | 8 (≈ 19.4 µM) | 4 (≈ 9.7 µM) | > 32 | 745 | 99.5 | > 32 | > 32 | > 32
Cn1c(C2CC(=O)N(c3ccc(F)c(F)c3)C2)nc2ccccc21 (centres undefined) | > 32 | > 32 | > 32 | 2.7 | > 32 | > 32 | > 32 | > 32 | > 32 | > 32 |  | 40.1 | > 32 | > 32 | > 32
